Results reported in paper PMC12326358, “Effect of Quantitative Structural Properties and Drug Formulation in Four Cannabinoids (Cannabidiol, Cannabigerol, Cannabichromene, and Cannabinol) on Their Lymphatic Transport after Enteral Administration in Rats” (Molecular Pharmaceutics, 2025).
Several values for one entry are separate records, joined by “and”; a condition that tells them apart may be missing. Equal values may be shown once. Entries after “also recorded” stand apart in the source; their conditions may differ. Read-outs that look alike come from different tables or passages of the source.

Columns and labels:
[1] = type: physicochemical; conditions: final nanoemulsion
Protocol: To test pharmacokinetic parameters for various cannabinoids, the self-emulsifying drug delivery system (SEDDS) was selected due to its facile preparation and as it has shown an enhanced absorption profile for CBD.1 However, prior to administration the oil phase was mixed with water forming nanoemulsion to decrease viscosity and facilitate application to rats. […]
formulation is in the paper referred to as nanoemulsion.
In general, the nanoemulsion was prepared as follows. First, the oil phase containing Propylene glycol monocaprylate (PGMC), surfactant Kolliphor EL (CR-EL), co-surfactant and cannabinoid was prepared and thoroughly homogenized. As co-surfactants, we tested three compounds:
Diethylene glycol monoethyl ether (TRSC) or Ethyl alcohol (ETOH) or Propylene glycol (PRGL).
Next, four parts of water with respect to one part of oil (by weight) were added dropwise to the oil mixture at mild stirring. The stability of prepared nanoemulsions (initially without cannabinoids) was evaluated using dynamic light scattering (LS Instruments, Switzerland). […] and unstable samples, characterized by very high turbidity or phase separation, respectively, were not further analyzed. Optimization results are shown in the form of ternary diagrams for three tested co-surfactants (TRSC, ETOH, PRGL) in Fig. S1.
According to the manufacturer, CBD is most soluble in PGMC among other products.2 High solubility was also expected for other cannabinoids, thus PGMC was chosen as a suitable oil-phase base for nanoemulsion formulation in this study. Next, CR-EL was selected as a surfactant capable of forming nanoemulsions with PGMC in a wide range of concentrations (based on previous non-published experiments). To optimize the composition, stability and the size dependence of various emulsion mixtures were investigated for systems containing the aforementioned components and selected co-surfactants – TRSC, ETOH and PRGL (without cannabinoids). According to the […]
with desirable sizes (Fig. S1). Furthermore, TRSC is a proven skin permeation enhancer and solubilizer. Moreover, as shown by Franceschinis et al., TRSC acted as an excellent absorption […]
enhancer for 4,6,4′trimethylangelicin during oral administration. […]
co-surfactant and solubilizer for the final formulation tested in the pharmacokinetic study.
The final composition of nanoemulsion was chosen based on the compromise between the cannabinoids' loading capacity and the used surfactant amount. The final formulation contained 50wt.% of CR-EL, 30wt.% of TRSC and 20wt.% of PGMC. Long-term stability for the optimized formulation was tested for two cannabinoid concentrations – 15 mg/ml and 30 mg/ml. Results are shown in Tab. S1. The size was below 30 nm even after 30 days for all cannabinoids at 15mg/ml […]
Although all formulations were stable over time and to avoid any colloid instability and cannabinoid decomposition, the water phase was added to the oil phase directly before application in pharmacokinetic study.

[2] = man, cited from earlier work
[3] = Lymphatic transport studies in anesthetized mesenteric lymph duct cannulated rats; conditions: for FRL, relative bioavailability via lymph / bioavailability / Kp: intraduodenal, mean ± SD; for FRL, relative bioavailability via lymph: FRL=FAL/F; for bioavailability: F, total absolute bioavailability, sum of FAL and FAP; for Kp: Lymph/serum AUC ratio
Protocol: Anesthetized mesenteric lymph duct cannulated rat model was used for the lymphatic transport measurement as previously described with slight modifications. Briefly, rats were left on normal diet and given 1 mL of olive oil 1 h prior to the surgery to visualize the mesenteric lymph (milky white color). They were anesthetized with intramuscular xylazine 5 mg/kg and ketamine 100 mg/kg after a rapid isoflurane induction. A transverse laparotomy was performed. […] The catheter was fixed in place with two to three drops of tissue adhesive (Histoacryl, B. Braun Surgical, S.A., Spain). A duodenal catheter was also placed (polyethylene, 0.97 mm O.D., 0.58 mm I.D.) via a small duodenotomy and fixed with tissue adhesive. The abdominal wall was sutured in two layers, with both catheters leaving the abdominal cavity through the right flank. At the end of the procedure, the right jugular vein was cannulated for blood sampling.
The rats were then placed on heated pads and covered with blankets to prevent heat loss. Cannabinoids in oil solution or nanoemulsion were then dosed slowly via duodenal catheter over 30 min. The administered dose was 10 mg of CBD and 15 mg of CBG, CBC and CBN (volume 1 mL). Whole lymph was collected in regularly changed Eppendorf tubes from the time the dosing started. When the dosing was finished, continuous hydration with normal saline at a rate of 3 mL/h intraduodenally followed using an infusion pump (Perfusor compactplus, B. Braun Melsungen AG, Germany). Anesthesia was maintained throughout the rest of the experiment and additional ketamine intramuscular boluses were given whenever necessary. Eppendorf tubes were changed hourly and systemic blood was drawn at the same time points. Blood samples were centrifuged (4500 rpm for 10 min) and serum was extracted. Lymph volume was measured gravimetrically and the samples were further processed without additional adjustment. All samples were stored in −80 °C until analysis. Laboratory was unaware of animal assignment to the particular experimental groups (laboratory blinding).
Serum and lymph concentrations in all studies were dose-normalized to 1 mg/kg prior to further calculations. AUC values were determined using linear trapezoidal rule. Exact actual sampling times were used for this purpose. Scheduled sampling times were used for mean concentration plotting in the graphs. PK-solver add-on for MS Excel was used for all basic pharmacokinetic calculations. GraphPad Prism version 10.2.2 (GraphPad Software, San Diego, CA, USA) was used for all statistical analyses and graph plotting. Unpaired Student’s t test was used to compare pharmacokinetic and lymphatic transport parameters between the experimental groups. Level of significance was set to p < 0.05.
Lymphatic transport parameters were defined and calculated as previously described. , Briefly, absolute bioavailability via lymph (FAL) was defined as percentage of administered drug dose absorbed into the lymph. It was determined directly from lymph volume and drug concentration in lymph duct cannulated rats. Absolute bioavailability via portal vein (FAP) was analogically defined as percentage of administered drug dose reaching the systemic circulation after direct absorption into blood. It was calculated using equation 1 FAP=AUCent/AUCiv where AUCent is the area under the dose-normalized blood concentration–time curve after enteral dosing in lymph duct cannulated (i.e., lymph deprived) rats and AUCiv is the respective parameter in a separate intravenously dosed group. Total absolute bioavailability (F) in lymph duct cannulated rats was calculated as a sum of FAL and FAP. In normal animals with no lymph duct cannulation, F was calculated using standard formula for oral bioavailability: 2 F=AUCpo/AUCiv Relative bioavailability via lymph (FRL) was defined as the percentage of systemically available drug that was absorbed via lymph. It was calculated using the equation 3 FRL=FAL/F

[4] = cited from earlier work; for absolute oral bioavailability: species not printed at place, ref reports published so far
[5] = design: method as in published earlier (Table 1 footnote a); conditions: nanoemulsion, IV, rats, 1 mg CBD, mean ± SD, ref published earlier (Table 1 footnote a), cited from earlier work
[6] = dogs, oral; cited from earlier work
[7] = nanoemulsion compared to oil solution, lymph duct-cannulated rats
[8] = nanoemulsion, lymph duct-cannulated rats
[9] = oil solution, lymph duct-cannulated rats
[10] = rat, in vivo, nanoemulsion, lymph duct-cannulated rats
[11] = rat, in vivo, oil solution, lymph duct-cannulated rats

SMILES | DLS, 90° size ([1]; cannabinoid 15 mg/ml, 1 day) [nm] | DLS, 90° size ([1]; cannabinoid 15 mg/ml, 30 days) [nm] | DLS, 90° size ([1]; cannabinoid 30 mg/ml, 1 day) [nm] | DLS, 90° size ([1]; cannabinoid 30 mg/ml, 30 days) [nm] | drop of relative bioavailability via lymph (FRL) [3, 7] | increase in absolute bioavailability via lymph (FAL) [3, 7] | increase in absolute bioavailability via portal vein (FAP) [3, 7] [fold] | FRL, relative bioavailability via lymph [3, 8] | FRL, relative bioavailability via lymph [3, 9] [%] | bioavailability [3, 10] [%] | bioavailability [3, 11] [%] | Kp [3, 10] | Kp [3, 11] | other results
CCCCCc1cc(O)c2c(c1)OC(C)(CCC=C(C)C)C=C2 (stereo not drawn) [CBC, cannabichromene] | 25 | 25 | 40 | 34 | did not reach statistical significance | 3 fold | 8 | 47% and 47 ± 14% | 63 ± 17 | 29 ± 7 | 6.6 ± 3.9 | 530 ± 239 | 1260 ± 676 | Tmax ([2]; oral administration): 2 to 4 h
C=C(C)[C@@H]1CCC(C)=C[C@H]1c1c(O)cc(CCCCC)cc1O [CBD, cannabidiol] | 26 | 26 | 200 | 222 | 74% | did not increase; also recorded: no increase | 11 | 13% and 13 ± 8 % | 50 ± 12 | 24 ± 9 | 4 ± 1.5 | 100 ± 60 | 699 ± 333 | oral bioavailability ([4]; rats, lipid-free formulation): 8.5% and 8%; oral bioavailability ([4]; rats, long-chain triglycerides-based formulation): 22%; absolute oral bioavailability ([4]; sunflower oil-based microemulsion): 25%; absolute oral bioavailability ([4]; sunflower oil): 14%; oral bioavailability ([2]; estimated): < 10%; bioavailability increase when taken with food ([2]; oral): up to 4 fold; AUC(0-inf) ([5]; dose-normalized to 1 mg/kg): 623 ± 141 ng·h/mL; T1/2 [5]: 2.5 ± 0.5 h; Vss [5]: 2.9 ± 1.1 L/kg; Cmax ([5]; serum, dose-normalized to 1 mg/kg): 845 ± 253 ng/mL
CCCCCc1cc(O)c(C/C=C(\C)CCC=C(C)C)c(O)c1 [CBG, cannabigerol] | 31 | 32 |  |  |  |  |  |  |  |  |  |  |  | drop of relative bioavailability via lymph (FRL) ([3]; rat, in vivo): 75%; increase in absolute bioavailability via lymph (FAL) ([3]; rat, in vivo): 8 fold; increase in absolute bioavailability via portal vein (FAP) ([3]; rat, in vivo): 71 fold; average Tmax [6]: 0.75 h
CCCCCc1cc(O)c2c(c1)OC(C)(C)c1ccc(C)cc1-2 [CBN, cannabinol] | 27 | 27 | 67 | 68 | 48% | 3 fold | 13 | 36% and 36 ± 20 % | 69 ± 13 | 29 ± 10 | 5.3 ± 2 | 274 ± 231 | 976 ± 519 | Tmax ([4]; rats, oral administration): 1.5 to 3 h
